Values quoted from earlier work in patent publication US10154968B2, “Buprenorphine nanoparticle composition and methods thereof” (AUBURN UNIVERSITY, priority 2012, dated 2018).

CO[C@@]12CC[C@@]3(C[C@@H]1[C@](C)(O)C(C)(C)C)[C@H]1Cc4ccc(O)c5c4[C@@]3(CCN1CC1CC1)[C@H]2O5 [Buprenorphine, (25)-2-[(5R,6R,7R,145)-9α-Cyclopropylmethyl-4,5-epoxy-6,14-ethano-3-hydroxy-6-methoxymorphinan-7-yl]-3,3-dimethylbutan-2-ol]
half-life (background statement): approximately two | excreted unchanged in the urine (previous studies): 27%
